According to patent publication US12599562B2, “Nanocrystal microparticles of poorly soluble drugs and methods of production and use thereof” (The Board of Regents of the University of Oklahoma, priority 2017, dated 2026):
In brackets after ≈: the same amount, converted by molar mass.

Experiments:
[1] = Dissolution profile (cumulative percentage of SHetA2 dissolved); assay type: physicochemical; settings: size range 2.82-4.46 μm; level reached (NCs and NC-MPs rising until 5 h)
Excerpt: Cumulative percentage dissolved SHetA2 from unprocessed SHetA2, SHetA2 NCs, SHetA2 MPs, and SHetA2 NC-MPs.
Dissolution Profile of SHetA2 NC-MPs, Unprocessed SHetA2, and Spray Dried SHetA2 MPs of Size Range 2.82-4.46 μm
The mean cumulative percentage of SHetA2 dissolved versus time data for SHetA2 NCs, SHetA2 NC-MPs, spray dried SHetA2 MPs, and unprocessed SHetA2 is shown in FIG. 9. MPs in sizes 2.82-4.46 μm were studied, because the particles in this size range are deposited in the alveolar region of the lungs. […] The concentration of SHetA2 increased at a constant rate for SHetA2 NCs and SHetA2 NC-MPs until 5 h. […] In the case of spray dried SHetA2 MPs, there was a prompt release within the first 15 min, then SHetA2 concentration increased slowly until leveling at a cumulative percentage of 21.19±4.40%. In contrast, the unprocessed SHetA2 dissolved only 3.51±0.9%.

[2] = Apparent maximum solubility of SHetA2 NCs and SHetA2 NC-MPs in PBS containing 0.05% SDS; assay type: physicochemical; settings: aqueous with cosolvent or surfactant or cyclodextrin, thermodynamic from solid, at first 5 min, read-out: apparent maximum solubility (highest drug solubility)
Experimental: SHetA2 NCs, SHetA2 MPs, and SHetA2 NC-MPs in PBS containing 0.05% SDS.
Apparent Maximum Solubility of SHetA2 NCs and SHetA2 NC-MPs
The apparent maximum solubility profiles of SHetA2 NCs, SHetA2 NC-MPs, unprocessed SHetA2 (i.e., unprocessed drug), and spray dried SHetA2 MPs (i.e., microparticulate amorphous drug) are shown in FIG. 8. […] SHetA2 NC-MPs and spray dried SHetA2 MPs followed a similar dissolution profile after 45 min. […] After 6 h, SHetA2 NCs followed a similar dissolution profile with the other two formulations.

CC1(C)CC(C)(C)c2cc(NC(=S)Nc3ccc([N+](=O)[O-])cc3)ccc2S1 [unprocessed SHetA2]
cumulative percentage of SHetA2 dissolved [1]: 3.51±0.9% | solubility at 5 min [2]: 0.48 ± 0.11 µg/mL (≈ 1.2 µM)
